Converted amounts (≈) assume the structure as drawn.
Experiments:
[1] = tested on: Bacillus subtilis ATCC6633; assay: MIC, twofold agar dilution; type: cell-based; details: Gram +, 10^6 cells/ml, 18 hrs, 37° C., read-out: Minimum inhibitory concentration (MIC)
Experimental: (§1) Minimum inhibitory concentrations (MIC) were determined by the twofold agar dilution method (Chemotherapy, 29(1), 76(1981)). Overnight cultures in Mueller-Hinton broth were suspended by buffered saline gelatine. One loopful of the bacterial suspension (10^6 or 10^8 colony-forming units/ml) was incubated onto the test compound-containing plates. The plates were incubated for 18 hrs. at 37° C. The MIC was the lowest concentration of the drug that inhibited visible growth.

[2] = tested on: Enterobacter aerogenes ATCC13048; assay: MIC, twofold agar dilution; type: cell-based; details: Klebsiella aerogenes, Gram -, 10^6 cells/ml, 18 hrs, 37° C., read-out: Minimum inhibitory concentration (MIC)
Experimental: as §1

[3] = tested on: Enterobacter cloaceas 963; assay: MIC, twofold agar dilution; type: cell-based; details: Gram -, 10^6 cells/ml, 18 hrs, 37° C., read-out: Minimum inhibitory concentration (MIC)
Experimental: as §1

[4] = tested on: Escherichia coli K-12 C600; assay: MIC, twofold agar dilution; type: cell-based; details: K12C600, Gram -, 10^6 cells/ml, 18 hrs, 37° C., read-out: Minimum inhibitory concentration (MIC)
Experimental: as §1

[5] = tested on: Escherichia coli NIHJ-JC-2; assay: MIC, twofold agar dilution; type: cell-based; details: NIHJJC2, Gram -, 10^6 cells/ml, 18 hrs, 37° C., read-out: Minimum inhibitory concentration (MIC)
Experimental: as §1

[6] = tested on: Klebsiella pneumoniae PCI-602; assay: MIC, twofold agar dilution; type: cell-based; details: PCI602, Gram -, 10^6 cells/ml, 18 hrs, 37° C., read-out: Minimum inhibitory concentration (MIC)
Experimental: as §1

[7] = tested on: Micrococcus luteus ATCC9341; assay: MIC, twofold agar dilution; type: cell-based; details: Gram +, 10^6 cells/ml, 18 hrs, 37° C., read-out: Minimum inhibitory concentration (MIC)
Experimental: as §1

[8] = tested on: Proteus mirabilis IFO3849; assay: MIC, twofold agar dilution; type: cell-based; details: Gram -, 10^6 cells/ml, 18 hrs, 37° C., read-out: Minimum inhibitory concentration (MIC)
Experimental: as §1

[9] = tested on: Proteus morganii IFO3848; assay: MIC, twofold agar dilution; type: cell-based; details: Morganella morganii, Gram -, 10^6 cells/ml, 18 hrs, 37° C., read-out: Minimum inhibitory concentration (MIC)
Experimental: as §1

[10] = tested on: Proteus rettgeri IFO3850; assay: MIC, twofold agar dilution; type: cell-based; details: Providencia rettgeri, Gram -, 10^6 cells/ml, 18 hrs, 37° C., read-out: Minimum inhibitory concentration (MIC)
Experimental: as §1

[11] = tested on: Proteus vulgalis HX-19; assay: MIC, twofold agar dilution; type: cell-based; details: Gram -; 10^6 cells/ml; 18 hrs, 37° C.; read-out: Minimum inhibitory concentration (MIC)
Experimental: as §1

[12] = tested on: Proteus vulgalis OX-19; assay: MIC, twofold agar dilution; type: cell-based; details: Gram -; 10^6 cells/ml; 18 hrs, 37° C.; read-out: Minimum inhibitory concentration (MIC)
Experimental: as §1

[13] = tested on: Pseudomonas aeruginosa ATCC9027; assay: MIC, twofold agar dilution; type: cell-based; details: Gram -, 10^6 cells/ml, 18 hrs, 37° C., read-out: Minimum inhibitory concentration (MIC)
Experimental: as §1

[14] = tested on: Pseudomonas aeruginosa IFO3445; assay: MIC, twofold agar dilution; type: cell-based; details: Gram -, 10^6 cells/ml, 18 hrs, 37° C., read-out: Minimum inhibitory concentration (MIC)
Experimental: as §1

[15] = tested on: Pseudomonas aeruginosa NCTC10490; assay: MIC, twofold agar dilution; type: cell-based; details: Gram -, 10^6 cells/ml, 18 hrs, 37° C., read-out: Minimum inhibitory concentration (MIC)
Experimental: as §1

[16] = tested on: Pseudomonas aeruginosa PAO7; assay: MIC, twofold agar dilution; type: cell-based; details: Gram -, 10^6 cells/ml, 18 hrs, 37° C., read-out: Minimum inhibitory concentration (MIC)
Experimental: as §1

[17] = tested on: Salmonella enteritidis G14; assay: MIC, twofold agar dilution; type: cell-based; details: Salmonella enterica, Gram -, 10^6 cells/ml, 18 hrs, 37° C., read-out: Minimum inhibitory concentration (MIC)
Experimental: as §1

[18] = tested on: Salmonella paratyphi 1015; assay: MIC, twofold agar dilution; type: cell-based; details: Salmonella enterica, 18 h, read-out: Minimum inhibitory concentration (MIC)
Experimental: as §1

[19] = tested on: Salmonella schottmulleri 0006; assay: MIC, twofold agar dilution; type: cell-based; details: Gram -, 10^6 cells/ml, 18 hrs, 37° C., read-out: Minimum inhibitory concentration (MIC)
Experimental: as §1

[20] = tested on: Salmonella typhi 901; assay: MIC, twofold agar dilution; type: cell-based; details: Salmonella enterica, 18 h, read-out: Minimum inhibitory concentration (MIC)
Experimental: as §1

[21] = tested on: Salmonella typhimurium IID 971; assay: MIC, twofold agar dilution; type: cell-based; details: Salmonella enterica; Gram -; 10^6 cells/ml; 18 hrs, 37° C.; read-out: Minimum inhibitory concentration (MIC)
Experimental: as §1

[22] = tested on: Serratia marcescens IAM1184; assay: MIC, twofold agar dilution; type: cell-based; details: Gram -, 10^6 cells/ml, 18 hrs, 37° C., read-out: Minimum inhibitory concentration (MIC)
Experimental: as §1

[23] = tested on: Staphylococcus aureus FAD208PJC-1; assay: MIC, twofold agar dilution; type: cell-based; details: FAD208PJC1, Gram +, 10^6 cells/ml, 18 hrs, 37° C., read-out: Minimum inhibitory concentration (MIC)
Experimental: as §1

[24] = tested on: Staphylococcus aureus MS-353; assay: MIC, twofold agar dilution; type: cell-based; details: MS353, Gram +, 10^6 cells/ml, 18 hrs, 37° C., read-out: Minimum inhibitory concentration (MIC)
Experimental: as §1

[25] = tested on: Staphylococcus aureus Terajima; assay: MIC, twofold agar dilution; type: cell-based; details: Gram +, 10^6 cells/ml, 18 hrs, 37° C., read-out: Minimum inhibitory concentration (MIC)
Experimental: as §1

[26] = tested on: Streptococcus pyogenes Cook; assay: MIC, twofold agar dilution; type: cell-based; details: Gram +, 10^6 cells/ml, 18 hrs, 37° C., read-out: Minimum inhibitory concentration (MIC)
Experimental: as §1

[27] = Urinary excretion in rats after oral dosing (bioassay with Escherichia coli NIHJ-JC-2); type: in vivo, SD strain); details: rat, male SD rats, 20 mg/Kg per os, fasted 24 hr
Experimental: Male rats of SD strain, weighing 180-210 g, were used 8 animals at a group. Test compounds suspended in 0.5% carboxymethyl cellulose were administered per os to 24 hr-fasted rats at dose of 20 mg/Kg. Urine was pooled from 0 to 6 hrs. and 6 to 24 hrs, and urinary excretion was measured by bioassay using Escherichia coli NIHJ-JC-2.
The assay method employed was the cup-plate method using
Escherichia coli NIHJ-JC-2. Urine was appropriately diluted with 1/15M phosphate buffer pH7.0, before assay if necessary. Standard calibration lines were made in 1/15M phosphate buffer pH7.0.

Compound | MIC [1] [µg/mL] | MIC [2] [µg/mL] | MIC [3] [µg/mL] | MIC [4] [µg/mL] | MIC [5] [µg/mL] | MIC [6] [µg/mL] | MIC [7] [µg/mL] | MIC [8] [µg/mL] | MIC [9] [µg/mL] | MIC [10] [µg/mL] | MIC [11] [µg/mL] | MIC [12] [µg/mL] | MIC [13] [µg/mL] | MIC [14] [µg/mL] | MIC [15] [µg/mL] | MIC [16] [µg/mL] | MIC [17] [µg/mL] | MIC [18] [µg/mL] | MIC [19] [µg/mL] | MIC [20] [µg/mL] | other results
CC1CN(c2c(F)cc3c(=O)c(C(=O)O)cn(CCF)c3c2F)CCN1 (stereo not drawn) [Example 16, 6,8-Difluoro-1-(2-fluoroethyl)-1,4-dihydro-7-(3-methyl-1-piperazinyl)-4-oxoquinoline-3-carboxylic acid] | 0.2 (≈ 0.542 µM) | 0.2 (≈ 0.542 µM) | 0.2 (≈ 0.542 µM) | 0.2 (≈ 0.542 µM) | 0.1 (≈ 0.271 µM) | 0.023 (≈ 0.0623 µM) | 6.25 (≈ 16.9 µM) | 0.39 (≈ 1.06 µM) | 0.05 (≈ 0.135 µM) | 0.2 (≈ 0.542 µM) | 0.05 (≈ 0.135 µM) | 0.2 (≈ 0.542 µM) | 0.1 (≈ 0.271 µM) | 0.78 (≈ 2.11 µM) | 0.38 (≈ 1.03 µM) | 1.56 (≈ 4.22 µM) | 0.2 (≈ 0.542 µM) | 0.05 (≈ 0.135 µM) | 0.1 (≈ 0.271 µM) | 0.1 (≈ 0.271 µM) | MIC [21]: 0.2 µg/mL (≈ 0.542 µM); MIC [22]: 0.2 µg/mL (≈ 0.542 µM); MIC [23]: 0.38 µg/mL (≈ 1.03 µM); MIC [24]: 1.56 µg/mL (≈ 4.22 µM); MIC [25]: 0.78 µg/mL (≈ 2.11 µM); MIC [26]: 3.13 µg/mL (≈ 8.47 µM); concentration at 6 h ([27]; urine 0-6 hr, read-out: Drug Concentration in Urine 0-6 (hr)): 344 µg/mL; dose excreted at 24 h ([27]; urine 0-24 hr, read-out: Rate of Urinary Excretion 0-24 (hr)): 41%; concentration at 24 h ([27]; urine 6-24 hr, read-out: Drug Concentration in Urine 6-24 (hr)): 46 µg/mL
CCn1cc(C(=O)O)c(=O)c2cc(F)c(N3CC(C)NC(C)C3)c(F)c21 (stereo not drawn) [Example 20] | 0.2 (≈ 0.547 µM) | 0.2 (≈ 0.547 µM) | 0.2 (≈ 0.547 µM) | 0.2 (≈ 0.547 µM) | 0.39 (≈ 1.07 µM) | 0.2 (≈ 0.547 µM) | 12.5 (≈ 34.2 µM) | 1.56 (≈ 4.27 µM) | 0.2 (≈ 0.547 µM) | 0.39 (≈ 1.07 µM) | 0.2 (≈ 0.547 µM) | 0.1 (≈ 0.274 µM) | 0.2 (≈ 0.547 µM) | 3.13 (≈ 8.57 µM) | 0.78 (≈ 2.13 µM) | 3.13 (≈ 8.57 µM) | 0.39 (≈ 1.07 µM) | 0.1 (≈ 0.274 µM) | 0.1 (≈ 0.274 µM) | 0.1 (≈ 0.274 µM) | MIC [21]: 0.2 µg/mL (≈ 0.547 µM); MIC [22]: 0.78 µg/mL (≈ 2.13 µM); MIC [23]: 0.78 µg/mL (≈ 2.13 µM); MIC [24]: 1.56 µg/mL (≈ 4.27 µM); MIC [25]: 1.56 µg/mL (≈ 4.27 µM); MIC [26]: 6.25 µg/mL (≈ 17.1 µM)
CCn1cc(C(=O)O)c(=O)c2cc(F)c(N3CCNCC3)cc21 [Reference Drug, norfloxacin, reference compound] | 0.1 (≈ 0.313 µM) | 0.1 (≈ 0.313 µM) | 0.05 (≈ 0.157 µM) | 0.05 (≈ 0.157 µM) | 0.05 (≈ 0.157 µM) | 0.025 (≈ 0.0783 µM) | 6.25 (≈ 19.6 µM) | 0.1 (≈ 0.313 µM) | 0.025 (≈ 0.0783 µM) | 0.05 (≈ 0.157 µM) | 0.025 (≈ 0.0783 µM) | 0.05 (≈ 0.157 µM) | 0.05 (≈ 0.157 µM) | 0.78 (≈ 2.44 µM) | 0.78 (≈ 2.44 µM) | 0.39 (≈ 1.22 µM) | 0.05 (≈ 0.157 µM) | 0.025 (≈ 0.0783 µM) | 0.025 (≈ 0.0783 µM) | 0.025 (≈ 0.0783 µM) | MIC [21]: 0.05 µg/mL (≈ 0.157 µM); MIC [22]: 0.1 µg/mL (≈ 0.313 µM); MIC [23]: 0.2 µg/mL (≈ 0.626 µM); MIC [24]: 6.25 µg/mL (≈ 19.6 µM); MIC [25]: 0.39 µg/mL (≈ 1.22 µM); MIC [26]: 1.56 µg/mL (≈ 4.89 µM)
